Measured values: patent US20070149466A1, “Methods and related compositions for treating or preventing obesity, insulin resistance disorders, and mitochondrial-associated disorders” (priority 2005, published 2007)

Tests used:
HDAC = details: cited from earlier work; for concentration at which HDAC is inhibited: literature statements, in vitro or in vivo for SAHA, SBHA, CBHA
[1] = test system: Zucker diabetic fatty rats; assay: Zucker diabetic rat model, 42 days oral dosing; format: in vivo; details: for daily body weights / food intake: 200 mg/kg orally twice a day, 43 days, vs vehicle and other groups; for fasting serum glucose levels: day 8, 15, 22, 29, 36 and 43, 200 mg/kg orally twice a day
Protocol: Groups of 8 rats were used for each group (6 weeks old, 190±10 grams). […] Blood samples were collected from the retro-orbital sinus 35 minutes before glucose load (Fasting glucose) and 90 minutes post oral glucose load. Serum glucose levels were determined by means of a Hitachi Model 750 Automatic Analyzer.

mice [2] = assay: Transmission electron microscopy of gastrocnemius muscle and brown adipose tissue of DIO mice; format: in vivo; details: 16 weeks
Protocol: Transmission electron microscopy was carried out using standard techniques as described below. The mitochondria can be seen as the darker oblong Z lines crossing the I lines.
Transmission electron microscopy was carried out using standard techniques as described below. Fat droplets may be observed at either magnification as white or light gray droplets and mitochondria can be observed at the higher magnification as roundish striated structures.
Transmission Electronic Microscopy/Preparation of Samples: The biopsies of gastrocnemius muscle and brown adipose tissue were cut in pieces of 1 mm and fixed immediately after collection in Kamovsky fixative (glutaraldehyde in cacodylate buffer) and kept at 4° C. without time limitation. The second step is the post-fixation with 1% osmium tetraoxide in 0.1M cacodylate buffer for 1 h at 4° C. Tissues were then dehydrated through successive baths of graded alcohol followed by a propylene oxide bath, and then a treatment with a propylene oxide and resine mix before to be embedded in a pure epoxy resine (araldite, Epon 812) which becomes solid after 48 h at 60° C. Semithin sections were cut at 2 μm and stained with toluidine blue, and histologically analysed by light microscopy. Ultrathin sections were cut at 70 nm and contrasted with uranyl acetate and lead citrate, and examined with a Philips 208 electron microscope.

[3] = Tolerability of resveratrol as a food additive; format: in vivo
Protocol: (§1) In this long-term study, 50 male C57BL6J mice (5 weeks of age) are analyzed during a period of 18 weeks.

male C57BL/6J mice [4] = assay: Diet induced obesity (DIO) mouse model: body weight, food intake, body fat content (dexa scanning); format: in vivo; details: resveratrol 400 mg/kg/day co-administered with a high fat diet
Protocol: The mice undergo an extensive phenotypic and molecular analysis to define the regulatory pathways affected by Sirt-1 activation.
as §1
During the entire study, body weight and food intake
are monitored twice weekly.
During week 1, body composition is analyzed, for all groups, by dual energy X-ray absorptiometry (dexascan).
During week 12, body weight composition is again analysed by dexascan for all groups.
Diet. The standard rodent chow diet is obtained from UAR and the high fat diet is obtained from Research Diet. Mice are fed, either with chow diet (16% protein, 3% fat, 5% fiber, 5% ash) or with high fat diet (26.2% protein, 26.3% carbohydrate, 34.9% fat). Resveratrol is mixed with either powdered chow diet or powdered high fat diet and pellets are reconstituted. Control groups receive pellets as provided by the company. Due to the consistency of the high fat diet, it is not necessary to add water to mix it with the resveratrol. […]
Determination of body fat content by Dexa scanning. […] Bone mineral density (BMD in g/cm^2) and body composition are determined by using the PIXIMUS software (version 1.4x, GE Medical Systems).
The bottom panels show comparisons of body fat content, as analyzed by dexa scanning, at […] of treatment for mice in the four dietary groups. […]

[5] = test system: high fat diet fed C57BL/6J mice; assay: Intraperitoneal and oral glucose tolerance tests in DIO mice; format: in vivo; details: 400 mg/kg/day, IPGTT and OGTT 2 g glucose/kg
Protocol: During week 10, glucose tolerance is determined by subjecting all the animals to an intraperitoneal glucose tolerance test (IPGTT). Animals are fasted for 12 h prior to this test. During week 16, glucose tolerance is analysed by performing an oral glucose tolerance test (OGTT) on a subset of animals (n=5) of groups 3, 4 and 5, and an intraperitoneal insulin sensitivity test (IPIST) on another subset of animals (n=5). During these experiments, blood is also collected to analyze insulin levels. Animals are fasted 12 h prior these tests. Intraperitoneal glucose tolerance test—Oral glucose tolerance test. IPGTT and OGTT are performed in mice which are fasted overnight (12 h). Mice are either injected intraperitoneally (IPGTT) or orally gavaged (OGTT) with a solution of 20% glucose in sterile saline (0.9% NaCl) at a dose of 2 g glucose/kg body weight. Blood is collected from the tail vein, for glucose and insulin monitoring, prior to and at 15, 30, 45, 75, 90, 120, 150, 180 min after administration of the glucose solution. The incremental area of the glucose curve is calculated as a measure of insulin sensitivity, whereas the corresponding insulin levels indicate insulin secretory reserves.

PGC1 alpha = assay: Immunoblot of PGC1 alpha acetylation in gastrocnemius muscle nuclear extracts; format: in vivo, mice; details: high fat diet plus 400 mg/kg resveratrol vs high fat diet, 15 weeks
From the text: Following immunoprecipitation with a PGC 1 alpha antibody (Santa Cruz Biotechnology, cat #SC-13067), secondary western blots were probed with either a acetylated lysine specific monoclonal (Cell Signaling Technology, Cat #9441; top left panel) or a PGC1alpha antibody (Santa Cruz Biotechnology, cat #SC-13067; lower left panel). Exposures were scanned and the acetylation status of PGC1alpha compared to total PGC1alpha of animals on either the HF or HF+[…] is shown in the right hand panel.

male C57BL/6 mice = assay: Cold test (body temperature at 4° C.) in DIO mice; format: in vivo; details: 400 mg/kg/day coadministered with a high fat diet, p<0.05
Protocol: During week 18, a cold test is performed on all animals by measuring body temperature of animals exposed to 4° C.

male C57BL/6J mice [6] = assay: Circadian (spontaneous locomotor) activity in DIO mice; format: in vivo; details: 400 mg/kg/day, high fat diet
Protocol: During week 13, circadian activity of groups 3, 4 and 5 (high fat diet fed mice) is studied during a period of […]. A circadian activity measurement is performed on groups […]. Spontaneous locomotor activity is measured using individual boxes, each composed with a sliding floor, a detachable cage, and equipped with infra-red captors allowing measurement of ambulatory locomotor activity and rears. Boxes are linked to a computer using an electronic interface (Imetronic, Pessac, France). Mice are tested for 32 h in order to measure habituation to the apparatus as well as nocturnal and diurnal activities. The quantity of water consumed is measured during the test period using an automated lickometer.

male C57BL/6J mice [7] = assay: Energy expenditure by indirect calorimetry (oxygen consumption) in DIO mice; format: in vivo; details: 400 mg/kg/day co-administrated with a high fat diet
Protocol: Nocturnal energy expenditure of groups 1, 3 and 5 (chow diet, high fat diet and high fat diet 400 mg) is measured by indirect calorimetry. Energy expenditure. Energy expenditure is evaluated through indirect calorimetry by measuring oxygen consumption with the Oxymax apparatus (Columbus Instruments, Columbus, Ohio) during 12 h. This system consists of an open circuit with air coming in and out of plastic cages (one mouse per cage). Animals are allowed free access to food and water. A very precise CO2 and O2 sensor measures the difference in O2 and CO2 concentrations in both air volumes, which gives the amount of oxygen consumed in a period of time given that the air flow of air coming in the cage is constant. The data coming out of the apparatus are processed in a connected computer, analyzed, and shown in an exportable Excel file. The values are expressed as ml.kg^−1.h^−1, which is commonly known as the VO2.

mice [8] = assay: Hematoxylin and eosin staining of tissue sections of DIO mice; format: in vivo; details: 16 weeks, high fat plus 400 mg/kg/day vs control and high fat diets
Protocol: After collection, tissues were fixed in 4% paraformaldehyde, processed and embedded in paraffin prior to sectioning (10 microns) and staining. Tissue processing, paraffin embedding, tissue sectioning and hematoxylin and eosin staining of histological sections were carried out using standard procedures and commercially available materials (see e.g., McManus J. F. A. and Mowry, R. W., Staining Methods. Histologic and Histochemcial, Harper and Row, New York 1960; Luna L. G., Hitopathological Methods and Color Atlas of Special Stains and Tissue Artifacts, Johnson Printers, Downers Grove, Ill. 1992; Gabe M., Techniques histologiques. Masson, Paris 1968; and world wide web at statlab.com).

mice [9] = assay: Succinate dehydrogenase staining of brown adipose tissue and muscle of DIO mice; format: in vivo; details: 16 weeks, HF+R400 vs HF diet
Protocol: Succinate dehydrogenase is a marker of mitochondrial activity and produces a dark stain in the photos. Tissues were collected and immediately frozen in methylbutane, then kept at −80° C. prior to sectioning and staining. Succinate Dehydrogenase staining was carried out using standard procedures and commercially available reagents (see e.g., Reichmann H and Wildenauer D, Histochemistry, 96: 251-3 (1991)).

mice [10] = assay: Serum biochemical analysis in DIO mice; format: in vivo; details: 16 weeks, high fat plus 400 mg/kg/day
Protocol: Diet induced obesity was established in mice as described above in Example 1.
The values shown are based on an average of measurements from 10 animals for each dietary group. Levels of total cholesterol, HDL-cholestrol, LDL-cholesterol, triglycerides, free fatty acids, aspartate aminotransferase […], alanine aminotransferase (ALAT), and alkaline […] (ALP) were determined using standard procedures. ASAT, ALP and ALAT were measured by kinetic UV and colour tests using methods based on the recommendations of the ‘International Federation for Clinical Chemistry’ (IFCC) on an Olympus AU-400 automated laboratory work station. AST was quantified using the OSR6109 reagent system which is based on the activity of AST that catalyzes the transamination of aspartate and 2-oxoglutarate to L-glutamate and oxalacetate. […] The decrease in absorbance due to the consumption of NADH is measured at […] and is proportional to the AST activity in the sample. ALT was quantified using the OSR6107 reagent system which is based on the activity of ALT that transfers the amino group from alanine to 2-oxoglutarate to form pyruvate and glutamate. […] As with the AST measurement, consumption of NADH is measured at […] and is proportional to the amount of ALT activity in the sample. ALP is measured by determining the rate of conversion of p-nitro-phenyl phosphate to p-nitrophenol (pNP). […]

[11] = high fat diet plus 400 mg/kg/day resveratrol

Molecule: O=C(/C=C/c1cccc(C(=O)NO)c1)NO [CBHA, m-carboxy-cinnamic acid bishydroxamic acid]
- concentration at which HDAC is inhibited (HDAC): micromolar concentration or lower

Molecule: C/C=C1\NC(=O)[C@H]2CSSCC/C=C/[C@H](CC(=O)N[C@H](C(C)C)C(=O)N2)OC(=O)[C@H](C(C)C)NC1=O [Depsipeptide]
- concentration at which HDAC is inhibited (HDAC): micromolar concentrations

Molecule: CN(C)C(=N)N=C(N)N [metformin, reference compound]
- daily body weights [1]: no statistical difference
- food intake [1]: no statistical difference
- fasting serum glucose levels [1]: no difference

Molecule: Oc1ccc(/C=C/c2cc(O)cc(O)c2)cc1 [resveratrol, 3,5,4′-Trihydroxy-trans-stilbene]
- mitochondria in gastrocnemius muscle (non-oxidative fibers), transmission electron microscopy (mice [2]; HF+R400 vs control or high fat diets): more mitochondria
- fat droplets in brown adipose tissue, transmission electron microscopy (mice [2]; [11]): smaller fat droplets
- mitochondria in brown adipose tissue, transmission electron microscopy (mice [2]; [11]): more mitochondria
- food aversion [3]: does not cause food aversion
- tolerability [3]: well tolerated
- diet-induced obesity (male C57BL/6J mice [4]): prevents diet-induced obesity
- glucose tolerance [5]: increases glucose tolerance
- PGC1 alpha deacetylation (PGC1 alpha): increases PGC1 alpha deacetylation
- adaptive thermogenesis (body temperature during 6 h cold test) (male C57BL/6 mice): enhances adaptive thermogenesis
- daily body weights [1]: no statistical difference
- food intake [1]: no statistical difference
- fasting serum glucose levels [1]: no difference
- circadian locomotor activity (male C57BL/6J mice [6]): significantly diminishes the circadian locomotor activity
- energy expenditure (male C57BL/6J mice [7]): increases energy expenditure
- histological changes (liver, epididymal WAT, BAT, gastrocnemius muscle; hematoxylin and eosin) (mice [8]): few histological changes
- succinate dehydrogenase staining (marker of mitochondrial activity), brown adipose tissue (mice [9]): significantly higher
- succinate dehydrogenase staining (marker of mitochondrial activity), gastrocnemius (mice [9]): significantly higher
- succinate dehydrogenase staining, soleus (mice [9]): little change
- serum biochemical markers (total, HDL and LDL cholesterol, triglycerides, free fatty acids, ASAT, ALAT, ALP) (mice [10]): fell within the normal range

Molecule: depudecin
- concentration at which HDAC is inhibited (HDAC): micromolar concentrations

Molecule: trichostatin A [TSA]
- inhibition of mammalian HDAC (HDAC; Yoshida et al. (1990)): potent inhibitor
